Data: US7091038B2, “Ecdysone receptor-based inducible gene expression system” (RheoGene, Inc., priority 2000, dated 2006)

Legend:
DmVgRXR + MmRXR [1] = biological target: T1, DmVgRXR + MmRXR (Drosophila melanogaster, UniProt P34021, E282G/G283S/G286V); assay: Transactivation of reporter gene through switch 1.8 in 3T3 cells; assay type: cell-based, Drosophila melanogaster; Mus musculus; settings: switch 1.8, pIND(SP1)LacZ
GAL4USP + VP16CfEcR [2] = assay: Transactivation of reporter gene through switch 1.5 in 293 cells; assay type: cell-based, Choristoneura fumiferana; settings: switch 1.5, pGAL4RELuc
Description: (§1) This construct was prepared in the same way as switch 1.3 except MmRXRDEF was replaced with CfUSPDEF (SEQ ID NO: 67).
(§2) The cells were harvested and reporter activity was assayed.
(§3) The same procedures described for CHO were followed for 293 cells except that the cells were plated in biocoated plates to avoid clumping.
(§4) Cells were harvested 24–48 hr after adding ligands. […] Twenty μl of lysate was assayed.

CfVgRXR + MmRXR = assay: Transactivation of reporter gene through switch 1.9 in 293 cells; assay type: cell-based, Choristoneura fumiferana; Mus musculus; settings: switch 1.9, pIND(SP1)LacZ
Description: This example was prepared in the same way as switch 1.8 except DmEcR was replaced with a truncated CfEcR comprising a partial A/B domain and the complete CDEF domains [SEQ ID NO: 70 (polynucleotide) and SEQ ID NO: 71 (polypeptide)].
as §2, §3, §4

[3] = tested on: EcR/RXR receptor combinations; assay: Truncated CfEcR and MmRXR receptor combinations, luciferase reporter in NIH3T3 cells; assay type: cell-based, Choristoneura fumiferana; Mus musculus; settings: 0, 1, 5 or 25 uM ligand for 48 hr, FIGS. 11–14
Description: Briefly, polynucleotides encoding EcR or RXR receptors were truncated at the junctions of A/B, C, D, E and F domains and fused to either a GAL4 DNA binding domain encoding polynucleotide (SEQ ID NO: 43) for CfEcR, or a VP16 activation domain encoding polynucleotide (SEQ ID NO: 49) for MmRXR as described in Example 1. The resulting receptor truncation/fusion polypeptides were assayed in NIH3T3 cells. Plasmid pFRLUC (Stratagene) encoding a luciferase polypeptide was used as a reporter gene construct and pTKRL (Promega) encoding a Renilla luciferase polypeptide under the control of the constitutive TK promoter was used to normalize the transfections as described above. The analysis was performed in triplicates and mean luciferase counts were determined as described above. […]

CfEcR = assay: Transactivation through CfEcR- versus DmEcR-based switches in mammalian cell lines (Tables 1–4); set-up: species or system Choristoneura fumiferana
Description: as §4

GAL4USP + VP16CfEcR [4] = assay: Transactivation of reporter gene through switch 1.5 in CV1 cells; assay type: cell-based, Choristoneura fumiferana; settings: switch 1.5, pGAL4RELuc
Description: as §1, §2
(§5) The cells were plated when they reached 50% confluency.
(§6) The same procedures described for NIH3T3 cells were followed for CV1 cells
as §4

DmVgRXR + MmRXR [5] = biological target: T1, DmVgRXR + MmRXR; assay: Transactivation of reporter gene through switch 1.8 in CHO cells; assay type: cell-based, Drosophila melanogaster; Mus musculus; set-up: host or cells: CHO, NIH3T3, 293 or CV1 cells; settings: switch 1.8, pIND(SP1)LacZ
Source text: This system was purchased from Invitrogen Corp., Carlsbad, California. It comprises a Drosophila melanogaster EcR (“DmEcR”) with a modified DNABD fused to VP16AD and placed under the control of a CMV promoter (SEQ ID NO: 68). Full length MmRXR (SEQ ID NO: 62) was placed under the control of the RSV promoter (SEQ ID NO: 69). The reporter, pIND(SP1)LacZ, contains five copies of a modified ecdysone response element (“EcRE”, E/GRE), three copies of an SPI enhancer, and a minimal heat shock promoter, all of which were placed upstream to the LacZ reporter gene.
as §2, §4

VP16CfEcR = assay: Transactivation of reporter gene through switch 1.7 in CV1 cells; assay type: cell-based, Choristoneura fumiferana; settings: switch 1.7, pEcRELuc
Description: Six ecdysone response elements (“EcRE”; SEQ ID NO: 55) from the hsp27 gene were placed upstream of the promoter and a luciferase gene (SEQ ID NO: 66). This switch most probably uses endogenous RXR.
as §2, §5, §6, §4

GAL4CfEcRVP16 = assay: Transactivation of reporter gene through switch 1.6 in CV1 cells; assay type: cell-based, Choristoneura fumiferana; settings: switch 1.6, pGAL4RELuc
Description: This construct was prepared so that both the GAL4 DNABD and the VP16AD were placed on the same molecule. GAL4DNABD (SEQ ID NO: 43) and VP16AD (SEQ ID NO: 49) were fused to CfEcRDEF (SEQ ID NO: 3) at N-and C-termini respectively.
as §2, §5, §6, §4

T1 sequence (P28700 whole entry, the tested form may be a part): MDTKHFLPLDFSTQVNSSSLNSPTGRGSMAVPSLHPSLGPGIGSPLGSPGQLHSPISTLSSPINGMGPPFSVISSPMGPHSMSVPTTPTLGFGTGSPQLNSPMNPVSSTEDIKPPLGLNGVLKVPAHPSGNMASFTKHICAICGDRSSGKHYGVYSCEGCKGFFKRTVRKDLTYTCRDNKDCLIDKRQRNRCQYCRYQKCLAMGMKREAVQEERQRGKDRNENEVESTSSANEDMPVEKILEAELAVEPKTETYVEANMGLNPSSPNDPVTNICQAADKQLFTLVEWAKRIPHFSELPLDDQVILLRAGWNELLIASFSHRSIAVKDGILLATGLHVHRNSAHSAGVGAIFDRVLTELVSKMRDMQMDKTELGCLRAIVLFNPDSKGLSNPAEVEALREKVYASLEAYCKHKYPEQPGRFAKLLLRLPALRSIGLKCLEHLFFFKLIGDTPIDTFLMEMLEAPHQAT
T1 sequence (P34021 whole entry E282G/G283S/G286V, the tested form may be a part): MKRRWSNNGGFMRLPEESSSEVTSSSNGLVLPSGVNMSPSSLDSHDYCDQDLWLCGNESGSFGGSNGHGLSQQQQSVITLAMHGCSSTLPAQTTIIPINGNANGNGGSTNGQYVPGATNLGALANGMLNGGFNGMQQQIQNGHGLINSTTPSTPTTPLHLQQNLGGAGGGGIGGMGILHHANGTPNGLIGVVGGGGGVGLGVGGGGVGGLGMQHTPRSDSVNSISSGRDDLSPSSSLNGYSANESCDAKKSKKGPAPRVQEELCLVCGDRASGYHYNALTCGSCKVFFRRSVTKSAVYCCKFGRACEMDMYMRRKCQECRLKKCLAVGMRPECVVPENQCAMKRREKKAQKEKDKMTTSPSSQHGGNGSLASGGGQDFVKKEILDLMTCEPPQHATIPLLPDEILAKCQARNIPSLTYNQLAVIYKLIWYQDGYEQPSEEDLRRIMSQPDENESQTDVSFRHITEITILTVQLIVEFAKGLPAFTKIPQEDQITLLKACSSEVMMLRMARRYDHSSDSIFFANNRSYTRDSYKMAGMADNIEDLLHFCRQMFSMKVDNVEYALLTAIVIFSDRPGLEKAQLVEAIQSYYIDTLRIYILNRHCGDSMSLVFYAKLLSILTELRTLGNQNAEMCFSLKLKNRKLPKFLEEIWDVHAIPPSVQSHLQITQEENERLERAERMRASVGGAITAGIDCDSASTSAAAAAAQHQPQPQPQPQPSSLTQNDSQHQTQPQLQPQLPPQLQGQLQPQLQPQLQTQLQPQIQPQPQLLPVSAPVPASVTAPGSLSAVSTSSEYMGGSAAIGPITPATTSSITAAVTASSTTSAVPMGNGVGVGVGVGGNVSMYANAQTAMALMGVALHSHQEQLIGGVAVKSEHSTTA

With CCc1c(OC)cccc1C(=O)NN(C(=O)c1cc(C)cc(C)c1)C(C)(C)C [N-(2-ethyl-3-methoxybenzoyl)-N′-(3,5-dimethylbenzoyl)-N′-t-butylhydrazine] the “Mean Fold Activation Through N-(2-ethyl-3-methoxybenzoyl)-N′-(3,5-dimethylbenzoyl)-N′-t-butylhydrazine” value (DmVgRXR + MmRXR [1]) was 21 fold, the “Mean Fold Activation Through N-(2-ethyl-3-methoxybenzoyl)-N′-(3,5-dimethylbenzoyl)-N′-t-butylhydrazine” value (GAL4USP + VP16CfEcR [2]) was 2 fold and the “Mean Fold Activation Through N-(2-ethyl-3-methoxybenzoyl)-N′-(3,5-dimethylbenzoyl)-N′-t-butylhydrazine” value (CfVgRXR + MmRXR) was 12 fold. For the same compound, the “Sensitivity of the EcR/RXR switch to the ligand” value [3] was “much more sensitive”, the “Potency as activator of CfEcR compared to DmEcR” value (CfEcR) was “more potent activators of CfEcR as compared to Drosophila melanogaster EcR (DmEcR)” and the “Mean Fold Activation Through N-(2-ethyl-3-methoxybenzoyl)-N′-(3,5-dimethylbenzoyl)-N′-t-butylhydrazine” value (GAL4USP + VP16CfEcR [4]) was 3 fold. The “Mean Fold Activation with 50 μM N-(2-ethyl-3-methoxybenzoyl)-N′-(3,5-dimethylbenzoyl)-N′-t-butylhydrazine” value (DmVgRXR + MmRXR [5]) was 14 fold, the “Mean Fold Activation Through N-(2-ethyl-3-methoxybenzoyl)-N′-(3,5-dimethylbenzoyl)-N′-t-butylhydrazine” value (VP16CfEcR) was 1 fold and the “Mean Fold Activation Through N-(2-ethyl-3-methoxybenzoyl)-N′-(3,5-dimethylbenzoyl)-N′-t-butylhydrazine” value (GAL4CfEcRVP16) was 6 fold.
